Broadly, the IC50 is the concentration at which inhibition is half-maximal. Lower therefore signals greater potency.

Structures are written as SMILES.

The subject of one assay is Baf3-WT. Description: Cellular assay (Alamar Blue), Baf3-WT with mouse IL-3. Format: cell-based. The settings on record: mouse IL-3 at 5 ng/ml, 72 hr. The procedure:
(§1) Cells for the assays were prepared by harvesting cells from culture, and then diluting them in the appropriate growth medium to between 40,000 cell/mL and 600,000 cell/mL, depending on the cell line.
(§2) The compounds to be tested were added (104, 10× final concentration) to a flat bottomed 96-well plate. The cellular suspension (80 μL per well) was added, and one hour later the growth factor was added (human M-CSF at 20 ng/ml for mNFS-60, mouse IL-3 at 5 ng/ml for Baf3-WT). The plate was then incubated for 72 hr at 37° C., 5% CO2. Alamar Blue (10^4 per well) was added and the plates returned to the incubator for a further 4-8 hours.
(§3) The plates were then read using a fluorescence plate reader at excitation 544 nm and emission 590 nm.
In general terms: The colour change of resazurin is a common sign of viable cells or microbes.

For assay [1], the target named is T1, kinase domain of human CSF1-R (Homo sapiens, UniProt P07333).
T1 construct: from codon I553 to Q961; made in house; host or cells: Sf9 insect cells (baculovirus)
T1 sequence (P07333 553-961): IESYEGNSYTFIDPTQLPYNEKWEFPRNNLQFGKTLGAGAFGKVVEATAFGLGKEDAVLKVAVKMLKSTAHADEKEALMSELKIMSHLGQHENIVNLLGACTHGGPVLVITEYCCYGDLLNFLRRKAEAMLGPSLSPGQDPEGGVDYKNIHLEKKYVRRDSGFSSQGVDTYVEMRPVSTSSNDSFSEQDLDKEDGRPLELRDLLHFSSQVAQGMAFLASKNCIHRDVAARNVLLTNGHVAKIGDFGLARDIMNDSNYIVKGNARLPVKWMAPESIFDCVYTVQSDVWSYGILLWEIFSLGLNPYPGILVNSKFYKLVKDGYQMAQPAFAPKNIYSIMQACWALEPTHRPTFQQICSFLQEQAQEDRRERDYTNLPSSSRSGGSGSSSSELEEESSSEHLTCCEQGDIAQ
Description: Alphascreen protein tyrosine kinase assay, CSF-1R. The assay is classed as biochemical. The procedure:
(§4) For screening purposes, compounds were diluted in 96 well plates at a concentration of 20 μM. Plates were warmed at 37° C. for 30 minutes before assay.
The kinase domain of human CSF1-R from codon I553 to Q961 was cloned into the pDEST-20 expression vector (Invitrogen). The CSF1-R plasmid was then transformed into competent DH10Bac cells (Gibco), and the recombinant baculovirus produced prepared for transfection into Sf9 insect cells.
(§5) Baculovirus preparations from each of construct were infected into five liters of SF9 cells (Invitrogen) grown in SF-900 medium (Invitrogen) to a cell density of approximately 1−2×10^6 cells/ml. […] Cells were harvested and lysed. Tyrosine kinase domains were purified by affinity chromatography on a glutathione-agarose column (Scientifix Pty. Ltd. catalog #: GSH-200).
(§6) Kinase assays were performed in 384 well Optiplates (Packard) using an Alphascreen Protein Tyrosine Kinase kit. […] Alphascreen phosphotyrosine acceptor beads followed by streptavidin donor beads were added under subdued light. The Alphascreen plates were read on a Packard Fusion Alpha. Inhibitors were added to the assays thirty minutes prior to the addition of ATP. Inhibitors were added in aqueous DMSO, with DMSO concentrations never exceeding 1%.
For orientation: Alpha assays give light when donor and acceptor beads are brought close together.

The next assay concerns the target T2, KDR protein kinase (Homo sapiens, UniProt P35968).
T2 construct: purchased Millipore 14-630M
The experiment in a line: Alphascreen protein tyrosine kinase assay, KDR. Format: biochemical. The procedure: as §4
FLT-3 and PDGFR β tyrosine kinase enzymes were purchased from Upstate Cell Signalling Solutions, CA, USA (flt-3 catalog #: 14-500 and PDGFR β catalog #: 14-463). KDR protein kinase enzyme was purchased from Millipore (catalogue #14-630M).
Kinase assays were performed in 384 well Optiplates (Packard) using an Alphascreen Protein Tyrosine Kinase kit. […] The biotinylated peptides Biotin-[…]-NH2 for c-KIT and PDGFRβ and Biotin-[…]-NH2 for CSF1-R and FLT-3 (final concentration 0.1-3 μM) were used as substrates. Alphascreen phosphotyrosine acceptor beads followed by streptavidin donor beads were added under subdued light. The Alphascreen plates were read on a Packard Fusion Alpha. Inhibitors were added to the assays thirty minutes prior to the addition of ATP. Inhibitors were added in aqueous DMSO, with DMSO concentrations never exceeding 1%.

The test system of the next assay is mNFS-60. The experiment in a line: Cellular assay (Alamar Blue), mNFS-60 with human M-CSF. Format: cell-based. The settings on record: human M-CSF at 20 ng/ml, 72 hr. How it is done:
as §1, §2, §3

Assay [2] deals with T3, kinase domain of human c-kit (Homo sapiens, UniProt P10721).
T3 construct: from codon M552 to end; made in house; host or cells: Sf9 insect cells (baculovirus)
Description: Alphascreen protein tyrosine kinase assay, c-KIT. The assay is classed as biochemical. How it is done:
as §4
The kinase domain of human c-kit from codon M552 to end was cloned into the pDEST-20 expression vector (Invitrogen). The c-kit plasmid was then transformed into competent DH10Bac cells (Gibco), and the recombinant baculovirus produced prepared for transfection into Sf9 insect cells.
as §5, §6

In another assay the target is T4, PDGFR β tyrosine kinase (Homo sapiens, UniProt P09619).
T4 construct: purchased Upstate Cell Signalling Solutions, CA, USA 14-463
The experiment in a line: Alphascreen protein tyrosine kinase assay, PDGFRβ. Format: biochemical.

T3 sequence (P10721 552-976 limits assumed): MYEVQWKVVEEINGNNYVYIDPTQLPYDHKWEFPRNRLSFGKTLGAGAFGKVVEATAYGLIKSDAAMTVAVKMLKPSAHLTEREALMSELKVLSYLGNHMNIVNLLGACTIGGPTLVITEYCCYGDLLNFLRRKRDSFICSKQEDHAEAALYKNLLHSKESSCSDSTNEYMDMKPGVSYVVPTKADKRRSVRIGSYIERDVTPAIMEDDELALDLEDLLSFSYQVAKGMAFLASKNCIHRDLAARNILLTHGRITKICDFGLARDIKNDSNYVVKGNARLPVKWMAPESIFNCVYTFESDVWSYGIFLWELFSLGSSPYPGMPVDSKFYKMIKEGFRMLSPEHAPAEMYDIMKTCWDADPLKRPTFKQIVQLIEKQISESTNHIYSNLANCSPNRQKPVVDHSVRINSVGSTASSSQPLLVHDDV
T4 sequence (P09619 33-1106): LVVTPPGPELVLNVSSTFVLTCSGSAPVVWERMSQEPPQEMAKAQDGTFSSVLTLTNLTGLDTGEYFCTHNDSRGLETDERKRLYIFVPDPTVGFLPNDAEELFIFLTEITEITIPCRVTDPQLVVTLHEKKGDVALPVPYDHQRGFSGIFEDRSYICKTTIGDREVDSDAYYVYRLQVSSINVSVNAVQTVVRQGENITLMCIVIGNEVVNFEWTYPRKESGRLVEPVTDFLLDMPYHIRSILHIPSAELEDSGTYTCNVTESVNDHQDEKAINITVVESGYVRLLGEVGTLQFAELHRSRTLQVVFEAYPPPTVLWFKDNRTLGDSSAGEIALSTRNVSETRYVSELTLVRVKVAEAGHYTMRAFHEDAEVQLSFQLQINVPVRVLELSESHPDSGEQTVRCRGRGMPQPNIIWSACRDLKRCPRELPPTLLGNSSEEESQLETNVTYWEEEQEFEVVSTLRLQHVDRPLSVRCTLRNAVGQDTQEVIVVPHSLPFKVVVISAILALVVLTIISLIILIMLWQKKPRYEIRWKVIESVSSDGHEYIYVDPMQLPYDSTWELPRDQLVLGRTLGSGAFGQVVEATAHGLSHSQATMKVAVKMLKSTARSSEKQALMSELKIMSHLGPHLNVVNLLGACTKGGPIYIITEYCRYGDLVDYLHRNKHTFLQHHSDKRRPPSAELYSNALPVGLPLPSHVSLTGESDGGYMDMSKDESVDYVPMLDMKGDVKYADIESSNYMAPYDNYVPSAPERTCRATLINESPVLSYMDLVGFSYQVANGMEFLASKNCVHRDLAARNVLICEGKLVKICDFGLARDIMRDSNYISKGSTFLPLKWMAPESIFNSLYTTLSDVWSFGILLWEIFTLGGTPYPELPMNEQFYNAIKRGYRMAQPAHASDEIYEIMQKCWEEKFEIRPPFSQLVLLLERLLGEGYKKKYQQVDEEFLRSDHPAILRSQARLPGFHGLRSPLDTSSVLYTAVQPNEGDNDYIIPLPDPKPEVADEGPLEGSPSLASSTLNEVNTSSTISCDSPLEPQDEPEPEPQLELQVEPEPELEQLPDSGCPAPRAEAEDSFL
T2 sequence (P35968 20-1356): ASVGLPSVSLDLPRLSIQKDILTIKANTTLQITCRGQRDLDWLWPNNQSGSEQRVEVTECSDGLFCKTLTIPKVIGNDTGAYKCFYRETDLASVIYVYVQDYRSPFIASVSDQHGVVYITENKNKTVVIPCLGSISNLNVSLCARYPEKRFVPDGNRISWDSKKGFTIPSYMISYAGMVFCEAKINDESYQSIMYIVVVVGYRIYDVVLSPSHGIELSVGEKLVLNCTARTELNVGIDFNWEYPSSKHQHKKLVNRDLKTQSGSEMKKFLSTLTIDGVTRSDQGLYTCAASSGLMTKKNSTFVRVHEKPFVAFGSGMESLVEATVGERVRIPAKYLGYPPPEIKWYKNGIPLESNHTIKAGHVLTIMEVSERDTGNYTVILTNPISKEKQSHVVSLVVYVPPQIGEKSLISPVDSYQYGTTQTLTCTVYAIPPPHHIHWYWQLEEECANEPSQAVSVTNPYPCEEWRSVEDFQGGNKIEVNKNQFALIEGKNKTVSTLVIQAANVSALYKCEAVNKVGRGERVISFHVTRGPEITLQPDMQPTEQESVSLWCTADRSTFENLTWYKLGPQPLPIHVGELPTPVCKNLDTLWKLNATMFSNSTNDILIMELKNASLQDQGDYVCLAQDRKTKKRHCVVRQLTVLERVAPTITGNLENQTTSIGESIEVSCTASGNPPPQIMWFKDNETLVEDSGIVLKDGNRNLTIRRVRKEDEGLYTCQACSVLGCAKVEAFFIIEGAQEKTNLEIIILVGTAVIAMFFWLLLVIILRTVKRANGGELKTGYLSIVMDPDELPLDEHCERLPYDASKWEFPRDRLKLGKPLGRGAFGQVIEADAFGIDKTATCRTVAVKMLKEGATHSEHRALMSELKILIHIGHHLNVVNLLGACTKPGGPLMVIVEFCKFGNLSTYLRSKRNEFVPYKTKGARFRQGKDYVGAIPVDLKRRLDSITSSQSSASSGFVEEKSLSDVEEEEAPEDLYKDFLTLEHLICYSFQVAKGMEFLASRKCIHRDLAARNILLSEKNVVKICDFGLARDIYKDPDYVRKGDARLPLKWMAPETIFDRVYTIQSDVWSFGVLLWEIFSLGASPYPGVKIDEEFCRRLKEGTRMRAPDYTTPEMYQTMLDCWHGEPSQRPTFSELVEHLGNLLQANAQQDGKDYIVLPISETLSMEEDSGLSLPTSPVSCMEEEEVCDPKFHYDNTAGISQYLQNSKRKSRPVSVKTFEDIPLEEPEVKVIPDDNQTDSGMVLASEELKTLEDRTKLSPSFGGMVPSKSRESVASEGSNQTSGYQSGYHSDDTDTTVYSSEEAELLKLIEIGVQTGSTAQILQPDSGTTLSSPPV

Consider `Cc1cn(-c2cncc(N[C@@H](C)c3cccc(NC(=O)c4cccc(C(F)(F)F)c4)c3)n2)cn1` [Compound 179], for which the IC50 in the assay with Baf3-WT was less than 10 µM; in assay [1], less than 100 nM; against KDR protein kinase, less than 100 nM; in the assay with mNFS-60, less than 200 nM; in assay [2], less than 100 nM.
Take `COc1cccc(-c2cncc(N[C@@H](C)c3cccc(NC(=O)c4ccc(C)nc4)c3)n2)c1` [Compound 36]: the figures for the IC50 (in assay [1]; on PDGFR β tyrosine kinase; in assay [2]) were less than 100 nM, less than 1000 nM and less than 100 nM, respectively.
`C[C@H](Nc1cncc(-c2ccc(S(C)(=O)=O)cc2)n1)c1cccc(NC(=O)c2cccc(C(F)(F)F)c2)c1` [Compound 182]: the IC50 in the assay with Baf3-WT is greater than 10 µM; in assay [1] it was less than 100 nM; on KDR protein kinase, less than 100 nM; in the assay with mNFS-60 it was less than 200 nM; in assay [2] it was less than 1000 nM.
In the case of `COc1cccc(C(=O)Nc2cccc([C@H](C)Nc3cncc(-c4cccc(N5CCOCC5)c4)n3)c2)c1` [Compound 190], the IC50 in the assay with Baf3-WT is greater than 10 µM; in assay [1], less than 100 nM; on KDR protein kinase, less than 100 nM; with mNFS-60, less than 200 nM; in assay [2] it was less than 100 nM.
Take `Cc1cncn1-c1cncc(N[C@@H](C)c2cccc(NC(=O)c3cccc(C(F)(F)F)c3)c2)n1` [Compound 188]: the IC50 was greater than 10 µM in the assay on Baf3-WT; less than 100 nM in assay [1]; less than 100 nM against KDR protein kinase; less than 200 nM in the assay with mNFS-60; less than 100 nM in assay [2].
Turning to `C[C@H](Nc1cncc(-c2cccc(S(C)(=O)=O)c2)n1)c1cccc(NC(=O)c2cccc(C(F)(F)F)c2)c1` [Compound 181], the half-inhibitory concentration (IC50) in the assay with Baf3-WT was less than 10 µM; in assay [1], less than 100 nM; against KDR protein kinase, less than 100 nM; in the assay with mNFS-60, less than 200 nM; in assay [2] it was less than 100 nM.
With `C[C@H](Nc1cncc(Cl)n1)c1cccc(NC(=O)c2cccc(CN3CCN(C)CC3)c2)c1` [Compound 127], the IC50 in the assay with Baf3-WT is greater than 10 µM; with mNFS-60 it was less than 1000 nM.
For the molecule `CC(Nc1cncc(-c2ccc(N)cc2)n1)c1cccc(NC(=O)c2cccnc2)c1` (racemic) [Compound 22], the IC50 in assay [1] was less than 100 nM; against PDGFR β tyrosine kinase, less than 1000 nM; in assay [2], less than 100 nM.
For `C[C@H](Nc1cncc(-c2ccc(S(N)(=O)=O)cc2)n1)c1cccc(NC(=O)c2cccc(C(F)(F)F)c2)c1` [Compound 173], the figures for the half-maximal inhibitory concentration (IC50) (in the assay with Baf3-WT; in assay [1]; in the assay with mNFS-60) were greater than 10 µM, less than 100 nM and less than 1000 nM, respectively.
As for `C[C@H](Nc1cncc(-c2cccc(CO)c2)n1)c1cccc(NC(=O)c2cccc(C(F)(F)F)c2)c1` [Compound 185], the IC50 in the assay on Baf3-WT is less than 10 µM; in assay [1], less than 100 nM; on KDR protein kinase, less than 100 nM; in the assay on mNFS-60, less than 200 nM; in assay [2], less than 1000 nM.
Take `C[C@H](Nc1cncc(-c2ccc(CO)cc2)n1)c1cccc(NC(=O)c2cccc(C(F)(F)F)c2)c1` [Compound 174, (S)—N-(3-(1-(6-(4-(hydroxymethyl)phenyl)pyrazin-2-ylamino)ethyl)phenyl)-3-(trifluoromethyl)benzamide]: the IC50 with Baf3-WT was greater than 10 µM; in assay [1], less than 100 nM; against KDR protein kinase, less than 100 nM; in the assay with mNFS-60, less than 200 nM; in assay [2], less than 100 nM.
As to `C[C@H](Nc1cncc(-c2cn[nH]c2)n1)c1cccc(NC(=O)c2cccnc2)c1` [Compound 19], the values for the IC50 (in assay [1]; against PDGFR β tyrosine kinase; in assay [2]) were less than 100 nM, less than 1000 nM and less than 100 nM, respectively.
Regarding `C[C@H](Nc1cncc(-c2ccc(NS(C)(=O)=O)cc2)n1)c1cccc(NC(=O)c2cccc(C(F)(F)F)c2)c1` [Compound 183], the IC50 in the assay on Baf3-WT is less than 10 µM; in assay [1], less than 100 nM; against KDR protein kinase, less than 100 nM; in the assay on mNFS-60, less than 200 nM; in assay [2], less than 1000 nM.
On to `COc1cc(-c2cncc(N[C@@H](C)c3cccc(NC(=O)c4cncc(C)c4)c3)n2)ccc1OP(=O)(O)O` [Compound 35], for which the IC50 in assay [1] was less than 100 nM; at PDGFR β tyrosine kinase it was less than 1000 nM; in assay [2] it was less than 1000 nM.
Consider `C[C@H](Nc1cncc(-c2cccc(NS(C)(=O)=O)c2)n1)c1cccc(NC(=O)c2cccnc2)c1` [Compound 16], for which the IC50 in assay [1] was less than 100 nM; on PDGFR β tyrosine kinase, less than 1000 nM; in assay [2], less than 100 nM.
Consider `Cc1ccc(F)c(C(=O)Nc2cccc([C@H](C)Nc3cncc(-c4cccc(N5CCOCC5)c4)n3)c2)c1` [Compound 192], for which the IC50 in the assay on Baf3-WT is greater than 10 µM; in assay [1] it was less than 100 nM; against KDR protein kinase it was less than 100 nM; with mNFS-60, less than 200 nM; in assay [2], less than 100 nM.
Turning to `COc1cccc(-c2cncc(N[C@@H](C)c3cccc(NC(=O)c4cccnc4)c3)n2)c1` [Compound 13], the 50% inhibitory concentration (IC50) (in assay [1]; on PDGFR β tyrosine kinase; in assay [2]) was less than 100 nM in each case.
For `C[C@H](Nc1cncc(-c2cccnc2)n1)c1cccc(NC(=O)c2cccnc2)c1` [Compound 11], the IC50 (in assay [1]; against PDGFR β tyrosine kinase; in assay [2]) was less than 1000 nM in each case.
Turning to `C[C@H](Nc1cncc(-c2cccc(S(N)(=O)=O)c2)n1)c1cccc(NC(=O)c2cccc(C(F)(F)F)c2)c1` [Compound 178], the IC50 with Baf3-WT is less than 10 µM; in assay [1], less than 100 nM; against KDR protein kinase, less than 100 nM; with mNFS-60 it was less than 200 nM; in assay [2], less than 1000 nM.
Take `Cc1ccc(NC(=O)c2cccc(C(F)(F)F)c2)cc1[C@H](C)Nc1cncc(Cl)n1` [Compound 169]: the IC50 was less than 10 µM in the assay on Baf3-WT; less than 1000 nM in assay [1]; less than 100 nM on KDR protein kinase; less than 200 nM with mNFS-60; less than 1000 nM in assay [2].
As for `C[C@H](Nc1cncc(-c2ccc(N3CCOCC3)nc2)n1)c1cccc(NC(=O)c2cccc(C(F)(F)F)c2)c1` [Compound 187], the IC50 in the assay on Baf3-WT is greater than 10 µM; in assay [1] it was less than 100 nM; on KDR protein kinase, less than 100 nM; with mNFS-60, less than 200 nM; in assay [2] it was less than 1000 nM.
With `COc1cc(-c2cncc(N[C@@H](C)c3cccc(NC(=O)c4cccnc4)c3)n2)ccc1O` [Compound 3], the IC50 (at PDGFR β tyrosine kinase; in assay [2]) was less than 100 nM throughout.
Regarding `COc1ccc(-c2cncc(N[C@@H](C)c3cccc(NC(=O)c4cccnc4)c3)n2)c(OC)n1` [Compound 20], the IC50 in assay [1] was less than 100 nM; at PDGFR β tyrosine kinase, less than 1000 nM; in assay [2] it was less than 100 nM.
With `C[C@H](Nc1cncc(-c2ccc(CN3CCN(C)CC3)cc2)n1)c1cccc(NC(=O)c2cccc(C(F)(F)F)c2)c1` [Compound 191], the 50% inhibitory concentration (IC50) with Baf3-WT is less than 10 µM; in assay [1], less than 100 nM; on KDR protein kinase, less than 100 nM; in the assay with mNFS-60, less than 200 nM; in assay [2] it was less than 100 nM.
For the molecule `C[C@H](Nc1cncc(-c2cccc(N3CCOCC3)c2)n1)c1cccc(NC(=O)c2ccc(F)c(Cl)c2)c1` [Compound 189], the IC50 in the assay with Baf3-WT is greater than 10 µM; in assay [1], less than 100 nM; on KDR protein kinase it was less than 100 nM; in the assay on mNFS-60, less than 200 nM; in assay [2] it was less than 1000 nM.
